A short description of the first data set: logP(acid) by reverse phase (C18) chromatography at pH 2.3. The format is physicochemical. The settings on record: reverse phase (C18) chromatography at pH 2.3.
In the case of `CSC[C@H](C)NC(=O)c1c(Cl)cccc1C(=O)Nc1ccc(Cn2c(C(F)(F)F)nc(Cl)c2Cl)nc1C` [13-502], the “logP (acid)” value is 3.50. `CSCC(C)NC(=O)c1c(Cl)cccc1C(=O)Nc1ccc(Cn2nc(C(F)(F)C(F)F)nc2C(F)(F)C(F)F)nc1C` (stereo not drawn) [14-31]: the “Physical property logP (acid)” value is recorded as “logP (acid) 3.33”.

In the case of `CCSc1nc(C(F)(F)F)nn1Cc1ccc(NC(=O)c2cccc(Cl)c2C(=O)NC(C)CSC)c(C)c1` (stereo not drawn) [14-38], the “Physical property logP (acid)” value is reported as “logP (acid) 4.13”. For the compound `CSCC(C)NC(=O)c1c(Cl)cccc1C(=O)Nc1ccc(Cn2nc(C(F)(F)F)nc2SC(C)C)cc1C` (stereo not drawn) [14-39], the “Physical property logP (acid)” value is reported as “logP (acid) 4.13”. Same read-out and setting: the entry for `CCCCCSc1nc(C(F)(F)F)nn1Cc1ccc(NC(=O)c2cccc(Cl)c2C(=O)NC(C)CSC)c(C)c1` (stereo not drawn) [14-40] is “logP (acid) 4.91”. Consider `Cc1nc(Cn2nc(C(F)(F)C(F)(F)F)nc2C(F)(F)F)ccc1NC(=O)c1cccc(Cl)c1C(=O)NC(C)C[S+](C)[O-]` (stereo not drawn) [14-60], for which the “Physical property logP (acid)” value was “logP (acid) 2.59”.

Staying with this data set, now noted: reverse phase (C18) chromatography, pH 2.3.
Turning to `Cc1nc(Cn2c(C(F)(F)F)nc(Cl)c2Cl)ccc1NC(=O)c1cccc(Cl)c1C(=O)N[C@@H](C)C[S+](C)[O-]` (stereo partly drawn) [13-363], the “logP (acid)” value is on record as “logP (acid) 2.17”. Turning to `Cc1nc(Cn2c(C(F)(F)F)nc(Cl)c2Cl)ccc1NC(=O)c1cccc(Cl)c1C(=O)N[C@@H](C)CS(C)(=O)=O` [13-364], the “logP (acid)” value is “logP (acid) 2.59”.

`CSC[C@H](C)NC(=O)c1c(Cl)cccc1C(=O)Nc1cnc(Cn2nc(C(F)(F)F)nc2C(F)(F)F)cc1C` [14-268]: the “logP (acid)” value is recorded as “logP (acid) 3.26”.

For `CSC[C@H](C)NC(=O)c1c(Br)cccc1C(=O)Nc1cnc(Cn2nc(C(F)(F)F)nc2C(F)(F)F)cc1C` [14-271], the “logP (acid)” value is reported as “logP (acid) 3.37”.

`CSC[C@H](C)NC(=O)c1c(I)cccc1C(=O)Nc1cnc(Cn2nc(C(F)(F)F)nc2C(F)(F)F)cc1C` [14-274]: the “logP (acid)” value is “logP (acid) 3.44”.

As to `CC(=O)CC(C)NC(=O)c1c(Cl)cccc1C(=O)Nc1ccc(Cn2nc(C(F)(F)C(F)(F)F)nc2C(F)(F)F)cc1C` (stereo not drawn) [14-295], the “logP (acid)” value was “logP (acid) 3.56”. On to `CC(=O)CC(C)NC(=O)c1c(Br)cccc1C(=O)Nc1ccc(Cn2nc(C(F)(F)C(F)(F)F)nc2C(F)(F)F)cc1C` (stereo not drawn) [14-296], for which the “logP (acid)” value was “logP (acid) 3.46”. As for `CC(=O)CC(C)NC(=O)c1c(I)cccc1C(=O)Nc1ccc(Cn2nc(C(F)(F)C(F)(F)F)nc2C(F)(F)F)cc1C` (stereo not drawn) [14-297], the “logP (acid)” value is recorded as “logP (acid) 3.70”.

As for `CC(=O)OC[C@H](C)NC(=O)c1c(Cl)cccc1C(=O)Nc1ccc(Cn2nc(C(F)(F)F)nc2C(F)(F)F)cc1C` [14-298], the “logP (acid)” value was “logP (acid) 3.08”. Still for that read-out and setting: the value for `CSC[C@H](C)NC(=O)c1c(Br)cncc1C(=O)Nc1ccc(Cn2nc(C(F)(F)C(F)(F)F)nc2C(F)(F)F)cc1C` [14-300] was “logP (acid) 3.84”. For `CSC[C@H](C)NC(=O)c1c(Br)cccc1C(=O)Nc1ccc(Cn2cnc(C(F)(F)C(F)F)n2)nc1C` [14-302], the “logP (acid)” value is “logP (acid) 2.48”. Still for that read-out and setting: the value for `CSC[C@H](C)NC(=O)c1c(Cl)cccc1C(=O)Nc1ccc(Cn2nnc(-c3ccc(C(F)(F)F)cc3)n2)cc1C` [14-305] was “logP (acid) 4.08”; that for `CSC[C@H](C)NC(=O)c1c(Cl)cccc1C(=O)Nc1ccc(Cn2nnc(C(F)(F)F)n2)nc1C` [14-306] was “logP (acid) 2.91”.

Regarding `CSC[C@H](C)NC(=O)c1c(Cl)cccc1C(=O)Nc1ccc(Cn2nnc(C(F)(F)C(F)(F)C(F)(F)F)n2)nc1C` [14-307], the “logP (acid)” value is “logP (acid) 3.71”. Still for that read-out and setting: the entry for `CSC[C@H](C)NC(=O)c1c(Cl)cccc1C(=O)Nc1ccc(Cn2cnc(C(F)(F)C(F)F)n2)nc1C` [14-309] is “logP (acid) 2.38”; for `CSC[C@H](C)NC(=O)c1c(Cl)cccc1C(=O)Nc1ccc(Cn2cnc(C(F)(F)C(F)(F)C(F)(F)F)n2)nc1C` [14-310] it is “logP (acid) 3.16”. The same measure, in the same setting: the entry for `CSC[C@H](C)NC(=O)c1c(Cl)cccc1C(=O)Nc1ccc(Cn2nc(C(F)(F)C(F)F)nc2C(F)(F)F)nc1C` [14-311] is “logP (acid) 3.45”; for `Cc1nc(Cn2nc(C(F)(F)F)n(C)c2=O)ccc1NC(=O)c1cccc(Cl)c1C(=O)N[C@@H](C)C[S+](C)[O-]` (stereo partly drawn) [14-321] it is “logP (acid) 1.37”; for `Cc1nc(Cn2nc(C(F)(F)F)n(C)c2=O)ccc1NC(=O)c1cccc(Cl)c1C(=O)N[C@@H](C)CS(C)(=O)=O` [14-322] it is “logP (acid) 1.60”. On the same count and under the same terms, the entry for `CSC[C@H](C)NC(=O)c1c(Cl)cccc1C(=O)Nc1ccc(Cn2nc(C(F)(F)F)n(C3CC3)c2=O)nc1C` [14-323] is “logP (acid) 2.57”; for `CSC[C@H](C)NC(=O)c1c(Cl)cccc1C(=O)Nc1ccc(Cn2nc(C(F)(F)C(F)(F)F)n(C(F)F)c2=O)cc1C` [14-328] it is “logP (acid) 3.68”; for `Cc1cc(Cn2nc(C(F)(F)C(F)(F)F)n(C(F)F)c2=O)ccc1NC(=O)c1cccc(Cl)c1C(=O)N[C@@H](C)C[S+](C)[O-]` (stereo partly drawn) [14-329] it is “logP (acid) 2.5”.

Turning to `Cc1cc(Cn2nc(C(F)(F)C(F)(F)F)n(C(F)F)c2=O)ccc1NC(=O)c1cccc(Cl)c1C(=O)N[C@@H](C)CS(C)(=O)=O` [14-330], the “logP (acid)” value is recorded as “logP (acid) 2.85”. Same read-out and setting: the entry for `CSC[C@H](C)NC(=O)c1c(Br)cccc1C(=O)Nc1ccc(Cn2nc(C(F)(F)C(F)(F)F)n(C(F)F)c2=O)cc1C` [14-331] is “logP (acid) 3.75”; for `CSC[C@H](C)NC(=O)c1c(I)cccc1C(=O)Nc1ccc(Cn2nc(C(F)(F)C(F)(F)F)n(C(F)F)c2=O)cc1C` [14-334] it is “logP (acid) 3.11”. `Cc1cc(Cn2nnc(-c3ccc(C(F)(F)F)cc3)n2)ccc1NC(=O)c1cccc(Br)c1C(=O)N[C@@H](C)CS(C)(=O)=O` [14-348]: the “logP (acid)” value was “logP (acid) 3.22”.

`Cc1cc(Cn2nnc(-c3ccc(C(F)(F)F)cc3)n2)ccc1NC(=O)c1cccc(Cl)c1C(=O)N[C@@H](C)CS(C)(=O)=O` [14-349]: the “logP (acid)” value is “logP (acid) 3.23”.

As to `CSC[C@H](C)NC(=O)c1c(Cl)cccc1C(=O)Nc1ccc(Cn2nc(C(F)(F)F)nc2NC(=O)C(F)(F)F)cc1C` [14-353], the “logP (acid)” value is given as “logP (acid) 3.11”. The same measure, in the same setting: the entry for `Cc1cc(Cn2nc(C(F)(F)C(F)(F)F)nc2C(F)(F)F)ccc1NC(=O)c1cccc(Cl)c1C(=O)NC(C)CC1(C)OCCCO1` (stereo not drawn) [14-357] is “logP (acid) 3.79”; for `Cc1cc(Cn2nc(C(F)(F)C(F)(F)F)nc2C(F)(F)F)ccc1NC(=O)c1cccc(I)c1C(=O)NC(C)CC1(C)OCCCO1` (stereo not drawn) [14-358] it is “logP (acid) 3.95”. With `Cc1cc(Cn2nc(C(F)(F)C(F)(F)F)nc2C(F)(F)F)ccc1NC(=O)c1cccc(Br)c1C(=O)NC(C)CC1(C)OCCCO1` (stereo not drawn) [14-359], the “logP (acid)” value was “logP (acid) 4.06”. The same measure, in the same setting: the entry for `Cc1cc(Cn2nc(C(F)(F)C(F)(F)F)nc2C(F)(F)F)ccc1NC(=O)c1cccc(Cl)c1C(=O)NC(C)CC1(C)OCCO1` (stereo not drawn) [14-360] is “logP (acid) 3.86”. Still for that read-out and setting: the value for `Cc1cc(Cn2nc(C(F)(F)C(F)(F)F)nc2C(F)(F)F)ccc1NC(=O)c1cccc(I)c1C(=O)NC(C)CC1(C)OCCO1` (stereo not drawn) [14-361] was “logP (acid) 3.95”; that for `Cc1cc(Cn2nc(C(F)(F)C(F)(F)F)nc2C(F)(F)F)ccc1NC(=O)c1cccc(Br)c1C(=O)NC(C)CC1(C)OCCO1` (stereo not drawn) [14-362] was “logP (acid) 3.92”; that for `CO/N=C(\C)CC(C)NC(=O)c1c(Br)cccc1C(=O)Nc1ccc(Cn2nc(C(F)(F)C(F)(F)F)nc2C(F)(F)F)cc1C` (stereo not drawn) [14-363] was “logP (acid) 4.03”.

Take `CSC[C@H](C)NC(=O)c1c(C(=O)Nc2ccc(Cn3nc(C(F)(F)F)nc3C(F)(F)F)nc2C)cccc1S(C)(=O)=O` [14-364]: the “logP (acid)” value is “logP (acid) 2.98”.

Turning to `CSC[C@H](C)NC(=O)c1c(C(=O)Nc2ccc(Cn3nc(C(F)(F)F)nc3C(F)(F)F)nc2C)cccc1S(=O)(=O)N(C)C` [14-365], the “logP (acid)” value is on record as “logP (acid) 3.30”. `Cc1nc(Cn2nc(C(F)(F)F)nc2C(F)(F)F)ccc1NC(=O)c1cccc(S(C)(=O)=O)c1C(=O)N[C@@H](C)C[S+](C)[O-]` (stereo partly drawn) [14-366]: the “logP (acid)” value was “logP (acid) 2.07”. Still for that read-out and setting: the entry for `Cc1nc(Cn2nc(C(F)(F)F)nc2C(F)(F)F)ccc1NC(=O)c1cccc(S(=O)(=O)N(C)C)c1C(=O)N[C@@H](C)C[S+](C)[O-]` (stereo partly drawn) [14-367] is “logP (acid) 2.25”; for `Cc1nc(Cn2nc(C(F)(F)F)nc2C(F)(F)F)ccc1NC(=O)c1cccc(S(C)(=O)=O)c1C(=O)N[C@@H](C)CS(C)(=O)=O` [14-368] it is “logP (acid) 2.43”. In the case of `Cc1nc(Cn2nc(C(F)(F)F)nc2C(F)(F)F)ccc1NC(=O)c1cccc(S(=O)(=O)N(C)C)c1C(=O)N[C@@H](C)CS(C)(=O)=O` [14-369], the “logP (acid)” value is reported as “logP (acid) 2.72”.

For the compound `CSC[C@H](C)NC(=O)c1c(C(=O)Nc2ccc(Cn3nc(C(F)(F)C(F)(F)F)nc3C(F)(F)F)cc2C)cccc1S(=O)(=O)N(C)C` [14-384], the “logP (acid)” value is reported as “logP (acid) 3.88”.

For `CSC[C@H](C)NC(=O)c1c(SC)cccc1C(=O)Nc1ccc(Cn2nc(C(F)(F)C(F)(F)F)nc2C(F)(F)C(F)(F)F)nc1C` [14-387], the “logP (acid)” value is on record as “logP (acid) 4.33”. The same measure, in the same setting: the entry for `CSC[C@H](C)NC(=O)c1c(SC)cccc1C(=O)Nc1ccc(Cn2nc(C(F)(F)C(F)(F)F)n(C(F)F)c2=O)cc1C` [14-389] is “logP (acid) 3.53”. On to `CSC[C@H](C)NC(=O)c1c(C(=O)Nc2ccc(Cn3nc(C(F)(F)C(F)(F)F)nc3C(F)(F)F)nc2C)cccc1S(C)(=O)=O` [14-393], for which the “logP (acid)” value is reported as “logP (acid) 3.34”. Regarding `Cc1nc(Cn2nc(C(F)(F)C(F)(F)F)nc2C(F)(F)F)ccc1NC(=O)c1cccc(S(C)(=O)=O)c1C(=O)N[C@@H](C)C[S+](C)[O-]` (stereo partly drawn) [14-394], the “logP (acid)” value is on record as “logP (acid) 2.39”. On the same count and under the same terms, the value for `Cc1cc(Cn2nc(C(F)(F)C(F)(F)F)nc2C(F)(F)F)ccc1NC(=O)c1cccc(S(=O)(=O)N(C)C)c1C(=O)N[C@@H](C)CS(C)(=O)=O` [14-395] was “logP (acid) 3.13”; that for `Cc1nc(Cn2nc(C(F)(F)C(F)(F)F)nc2C(F)(F)F)ccc1NC(=O)c1cccc(S(C)(=O)=O)c1C(=O)N[C@@H](C)CS(C)(=O)=O` [14-396] was “logP (acid) 2.76”.

The values above are taken from patent US20110184188A1, “Insecticidal Benzenedicarboxamide Derivative” (priority 2008, published 2011).
